In US20180003695A1, “METHOD FOR QUANTITATIVE MEASUREMENT OF GASTRIC ACIDITY USING 13C CARBONATE SALT” (priority 2010, published 2018):

Legend:
[1] = tested on: platelet aggregation by ADP stimulation; details: clopidogrel 10 mg/kg oral, ketoconazole 50 mg/kg oral 30 min before, blood 2 hours after clopidogrel
Description: Fasted rats (7 weeks old, female, SD rats) were used as experimental animals.

gastric acid secretion = test: Correlation between enzyme activity of CYP2C19 and CYP3A4 and effect of omeprazole, 13C-CaCO3 expiration test; format: in vivo, rats; details: ketoconazole 50 mg/kg oral 30 min before omeprazole 3 mg/kg i.v.; 13C-CaCO3 100 μmol/kg oral 2 hours after omeprazole
Description: Fasted rats (7 weeks old, female, SD rats) were used as experimental animals. The rats were divided into an omeprazole administration group (n=3), a ketoconazole pre-treatment group (n=3), and a control group (n=3).
Expired air was then collected. […] Expired air was then collected.
The above expired air was used as test samples, and Δ^13C (‰) was measured with a mass spectrometer for expired air analysis (ABCA: manufactured by SerCon) from the concentration of ^13CO2 excreted in the expired air.

COC(=O)[C@H](c1ccccc1Cl)N1CCc2sccc2C1 [clopidogrel]
platelet aggregation inhibitory action of clopidogrel under ketoconazole pre-treatment [1]: reduced

CC(=O)N1CCN(c2ccc(OCC3COC(Cn4ccnc4)(c4ccc(Cl)cc4Cl)O3)cc2)CC1 (centres unmarked) [ketoconazole]
Δ13C (‰) in the expired air after 13C-CaCO3, effect of ketoconazole pre-treatment before omeprazole (gastric acid secretion): decreased
